Measurements as given in patent publication US8822530B2, “Sulfur derivatives as chemokine receptor modulators” (Allergan, Inc., priority 2010, dated 2014).

Molecular target: T1, CCR2 receptor (Homo sapiens, UniProt P41597)
T1 construct: expressed in transfected cells
Test: Calcium activity assay on FLIPR Tetra in HEK-Gqi5 cells stably expressing CCR2
Assay type: cell-based
Protocol: HEK-Gqi5 cells stably expressing CCR2 were cultured in DMEM high glucose, 10% FBS, 1% PSA, 400 μg/ml geneticin and 50 μg/ml hygromycin. Appropriate positive control chemokines (MCP-1, MIP1A or RANTES) was used as the positive control agonist for screening compound-induced calcium activity assayed on the FLIPR^Tetra. The drug plates were prepared in 384-well microplates using the EP3 and the MultiPROBE robotic liquid handling systems. Compounds were synthesized and tested for CCR2 activity.

T1 sequence (P41597 whole entry): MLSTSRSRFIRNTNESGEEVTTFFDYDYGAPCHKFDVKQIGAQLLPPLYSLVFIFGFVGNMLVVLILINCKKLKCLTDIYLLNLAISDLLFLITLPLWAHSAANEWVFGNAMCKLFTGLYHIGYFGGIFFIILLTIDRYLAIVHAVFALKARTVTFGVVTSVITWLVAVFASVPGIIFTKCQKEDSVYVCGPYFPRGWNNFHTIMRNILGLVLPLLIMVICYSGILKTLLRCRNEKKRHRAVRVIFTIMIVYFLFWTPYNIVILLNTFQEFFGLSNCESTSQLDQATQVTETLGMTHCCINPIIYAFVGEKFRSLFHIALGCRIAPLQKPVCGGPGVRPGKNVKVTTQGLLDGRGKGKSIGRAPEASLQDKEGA

SMILES	CCR2 % ANTAGONISM [%]	IC50 [nM]
O=C(O)c1ccc(CSc2ccc(Cl)cc2NS(=O)(=O)c2ccc(Cl)c(C(F)(F)F)c2)cc1 [4-({[4-chloro-2-({[4-chloro-3-(trifluoromethyl)phenyl]sulfonyl}amino)phenyl]sulfanyl}methyl)benzoic acid]	102	255
O=C(NCCN1CCCC1)c1ccc(C[S+]([O-])c2ccc(Cl)cc2NS(=O)(=O)c2ccc(Cl)c(C(F)(F)F)c2)cc1 (centres unmarked) [4-({[4-chloro-2-({[4-chloro-3-(trifluoromethyl)phenyl]sulfonyl}amino)phenyl]sulfinyl}methyl)-N-[2-(pyrrolidin-1-yl)ethyl]benzamide]	85	1430
O=C(O)c1ccc(C[S+]([O-])c2ccc(Cl)cc2NS(=O)(=O)c2ccc(Cl)c(C(F)(F)F)c2)cc1 (centres unmarked) [4-({[4-chloro-2-({[4-chloro-3-(trifluoromethyl)phenyl]sulfonyl}amino)phenyl]sulfinyl}methyl)benzoic acid]	23	2100
O=C(CCSc1ccc(Cl)cc1NS(=O)(=O)c1ccc(Cl)c(C(F)(F)F)c1)N1CCCC1 [4-chloro-N-(5-chloro-2-{[3-oxo-3-(pyrrolidin-1-yl)propyl]sulfanyl}phenyl)-3-(trifluoromethyl)benzenesulfonamide]	60	2290
O=C(CC[S+]([O-])c1ccc(Cl)cc1NS(=O)(=O)c1ccc(Cl)c(C(F)(F)F)c1)N1CCCC1 (centres unmarked) [4-chloro-N-(5-chloro-2-{[3-oxo-3-(pyrrolidin-1-yl)propyl]sulfinyl}phenyl)-3-(trifluoromethyl)benzenesulfonamide]	72	1660
O=C(CCS(=O)(=O)c1ccc(Cl)cc1NS(=O)(=O)c1ccc(Cl)c(C(F)(F)F)c1)N1CCCC1 [4-chloro-N-(5-chloro-2-{[3-oxo-3-(pyrrolidin-1-yl)propyl]sulfonyl}phenyl)-3-(trifluoromethyl)benzenesulfonamide]	58	
O=C(O)CNC(=O)c1ccc(CSc2ccc(Cl)cc2NS(=O)(=O)c2ccc(Cl)c(C(F)(F)F)c2)cc1 [({[4-({[4-chloro-2-({[4-chloro-3-(trifluoromethyl)phenyl]sulfonyl}amino)phenyl]sulfanyl}methyl)phenyl]carbonyl}amino)acetic acid]	75	
O=S(=O)(Nc1cc(Cl)ccc1[S+]([O-])Cc1ccccc1)c1ccc(Cl)c(C(F)(F)F)c1 (centres unmarked) [N-[2-(benzylsulfinyl)-5-chlorophenyl]-4-chloro-3-(trifluoromethyl)benzenesulfonamide]	77	493
N#Cc1ccc(NS(=O)(=O)c2cc3ccccc3o2)c(S(=O)(=O)Cc2ccccc2)c1 [N-[2-(benzylsulfonyl)-4-cyanophenyl]-1-benzofuran-2-sulfonamide]	96	888
O=S(=O)(Cc1ccccc1)c1ccc(Cl)cc1NS(=O)(=O)c1ccc(Cl)c(C(F)(F)F)c1 [N-[2-(benzylsulfonyl)-5-chlorophenyl]-4-chloro-3-(trifluoromethyl)benzenesulfonamide]	71	538
CS(=O)(=O)Nc1cccc(C[S+]([O-])c2ccc(Cl)cc2NS(=O)(=O)c2cc3ccccc3o2)c1 (centres unmarked) [N-[5-chloro-2-({3-[(methylsulfonyl)amino]benzyl}sulfinyl)phenyl]-1-benzofuran-2-sulfonamide]	77	2420
CS(=O)(=O)Nc1cccc(CS(=O)(=O)c2ccc(Cl)cc2NS(=O)(=O)c2cc3ccccc3o2)c1 [N-[5-chloro-2-({3-[(methylsulfonyl)amino]benzyl}sulfonyl)phenyl]-1-benzofuran-2-sulfonamide]	91	6570
O=C1CCc2cc(NS(=O)(=O)c3cc4ccccc4o3)c([S+]([O-])Cc3ccccc3)cc21 (centres unmarked) [N-[6-(benzylsulfinyl)-1-oxo-2,3-dihydro-1H-inden-5-yl]-1-benzofuran-2-sulfonamide]	73	
O=C1CCc2cc(NS(=O)(=O)c3cc4ccccc4o3)c(S(=O)(=O)Cc3ccccc3)cc21 [N-[6-(benzylsulfonyl)-1-oxo-2,3-dihydro-1H-inden-5-yl]-1-benzofuran-2-sulfonamide]	45	2240
CC(=O)Nc1cccc(CSc2ccc(Cl)cc2NS(=O)(=O)c2cc3ccccc3o2)c1 [N-{3-[({2-[(1-benzofuran-2-ylsulfonyl)amino]-4-chlorophenyl}sulfanyl)methyl]phenyl}acetamide]	96	379
CC(=O)Nc1cccc(C[S+]([O-])c2ccc(Cl)cc2NS(=O)(=O)c2cc3ccccc3o2)c1 (centres unmarked) [N-{3-[({2-[(1-benzofuran-2-ylsulfonyl)amino]-4-chlorophenyl}sulfinyl)methyl]phenyl}acetamide]	95	

Other lines, results leading:

CCR2 % ANTAGONISM [%]	IC50 [nM]	SMILES
95	484	O=C(O)CSc1ccc(Cl)cc1NS(=O)(=O)c1cc2ccccc2o1 [({2-[(1-benzofuran-2-ylsulfonyl)amino]-4-chlorophenyl}sulfanyl)acetic acid]
24		O=C(O)CNC(=O)c1ccc(C[S+]([O-])c2ccc(Cl)cc2NS(=O)(=O)c2ccc(Cl)c(C(F)(F)F)c2)cc1 (centres unmarked) [({[4-({[4-chloro-2-({[4-chloro-3-(trifluoromethyl)phenyl]sulfonyl}amino)phenyl]sulfinyl}methyl)phenyl]carbonyl}amino)acetic acid]
73	1610	CC(=O)Nc1cccc(CSc2ccc(Cl)cc2N(C(C)=O)S(=O)(=O)c2cc3ccccc3o2)c1 [N-(2-{[3-(acetylamino)benzyl]sulfanyl}-5-chlorophenyl)-N-(1-benzofuran-2-ylsulfonyl)acetamide]
79	604	N#Cc1ccc(NS(=O)(=O)c2cc3ccccc3o2)c(SCc2ccccc2)c1 [N-[2-(benzylsulfanyl)-4-cyanophenyl]-1-benzofuran-2-sulfonamide]
68	1280	O=S(=O)(Nc1cc(Cl)ccc1SCc1ccccc1)c1ccc(Cl)c(C(F)(F)F)c1 [N-[2-(benzylsulfanyl)-5-chlorophenyl]-4-chloro-3-(trifluoromethyl)benzenesulfonamide]
94	1030	N#Cc1ccc(NS(=O)(=O)c2cc3ccccc3o2)c([S+]([O-])Cc2ccccc2)c1 (centres unmarked) [N-[2-(benzylsulfinyl)-4-cyanophenyl]-1-benzofuran-2-sulfonamide]
90	1280	CS(=O)(=O)Nc1cccc(CSc2ccc(Cl)cc2NS(=O)(=O)c2cc3ccccc3o2)c1 [N-[5-chloro-2-({3-[(methylsulfonyl)amino]benzyl}sulfanyl)phenyl]-1-benzofuran-2-sulfonamide]
